Measurements taken from ChEMBL document CHEMBL6087437 (J Med Chem, 2025).
Active and inactive are the calls of the source. No cut-off for these calls is given here.

What was measured:
Marburgvirus = assay: Antiviral activity against pseudotyped Marburg virus expressing glycoprotein infected in human A549 cells assessed as inhibition of viral entry incubated for 48 hrs by Neolite reporter gene assay; assay type: functional, organism-based; settings: Orthomarburgvirus, A549, 48 h
[1] = Selectivity index, ratio of CC50 for human A549 cells to EC50 for pseudotyped Ebola virus expressing glycoprotein infected in human A549 cells; assay type: toxicity, cell-based; settings: read-out: Ratio CC50/EC50
Ebolavirus [2] = assay: Antiviral activity against pseudotyped Ebola virus expressing glycoprotein infected in human A549 cells assessed as inhibition of viral entry incubated for 48 hrs by Neolite reporter gene assay; assay type: functional, organism-based; settings: Orthoebolavirus, A549, 48 h
[3] = Selectivity index, ratio of CC50 for human HeLa cells to EC50 for antiviral activity against wildtype Ebolavirus infected in human HeLa cells; assay type: toxicity, cell-based; settings: read-out: Ratio CC50/EC50
Influenza A virus = assay: Antiviral activity against pseudotyped Influenza A virus A/Goose/Qinghai/59/05(H5N1) infected in human A549 cells assessed as inhibition of viral entry incubated for 48 hrs by Neolite reporter gene assay; assay type: functional, organism-based
Bundibugyo virus = assay: Antiviral activity against pseudotyped Bundibugyo ebolavirus expressing glycoprotein infected in human A549 cells assessed as inhibition of viral entry incubated for 48 hrs by Neolite reporter gene assay; assay type: functional, organism-based; settings: A549, 48 h
[4] = tested on: Vesicular stomatitis virus; assay: Antiviral activity against pseudotyped vesicular stomatitis virus expressing glycoprotein infected in human A549 cells assessed as inhibition of viral entry incubated for 48 hrs by Neolite reporter gene assay; assay type: functional, organism-based
Sudan ebolavirus = assay: Antiviral activity against pseudotyped Sudan ebolavirus expressing glycoprotein infected in human A549 cells assessed as inhibition of viral entry incubated for 48 hrs by Neolite reporter gene assay; assay type: functional, organism-based; settings: A549, 48 h
Zaire ebolavirus = assay: Antiviral activity against pseudotyped Zaire ebolavirus expressing glycoprotein infected in human A549 cells assessed as inhibition of viral entry incubated for 48 hrs by Neolite reporter gene assay; assay type: functional, organism-based; settings: A549, 48 h
Tai Forest ebolavirus = assay: Antiviral activity against pseudotyped Tai Forest ebolavirus expressing glycoprotein infected in human A549 cells assessed as inhibition of viral entry incubated for 48 hrs by Neolite reporter gene assay; assay type: functional, organism-based; settings: A549, 48 h
Reston ebolavirus = assay: Antiviral activity against pseudotyped Reston ebolavirus expressing glycoprotein infected in human A549 cells assessed as inhibition of viral entry incubated for 48 hrs by Neolite reporter gene assay; assay type: functional, organism-based; settings: A549, 48 h
HeLa = assay: Cytotoxicity against human HeLa cells by Celltiter-Glo luminescent cell viability assay; assay type: toxicity, cell-based
Ebolavirus [5] = assay: Antiviral activity against wildtype Ebola virus infected in human HeLa cells incubated for 40 hrs by Hoechst 33342 staining based Cytation-1 automated microscopic analysis; assay type: functional, organism-based; settings: Orthoebolavirus
Ebolavirus [6] = assay: Binding affinity to Ebolavirus glycoprotein by SPR analysis

| SMILES | EC50 (Marburgvirus) [nM] | selectivity ratio [1] | EC50 (Ebolavirus [2]) [nM] | other results |
| --- | --- | --- | --- | --- |
| CC1CCN(c2ccc(NC(=O)c3ccc(CN4C[C@@H]5C[C@H]4CO5)cc3)cc2C(F)(F)F)CC1 | 1340 | 86 | 230 |  |
| O=C(Nc1ccc(N2CCCC2)c(C(F)(F)F)c1)c1ccc(CN2CCOCC2)cc1 | 14900 | 18 | 3300 |  |
| CC1CC(C)CN(c2ccc(NC(=O)c3ccc(CN4CCOCC4)cc3)cc2C(F)(F)F)C1 (configuration not stated) | 5340 | 52 | 1070 |  |
| O=C(Nc1ccc(N2CCC3(CCC3)CC2)c(C(F)(F)F)c1)c1ccc(C(=O)N2C[C@H]3C[C@@H]2CO3)nc1 | 3890 | 201 | 230 | selectivity ratio [3]: 49; inhibition (Influenza A virus): Weak_effect; EC50 (Bundibugyo virus): 1190 nM; inhibition [4]: Weak_effect; EC50 (Sudan ebolavirus): 1610 nM; EC50 (Zaire ebolavirus): 230 nM; EC50 (Tai Forest ebolavirus): 130 nM; EC50 (Reston ebolavirus): 260 nM; CC50 (HeLa): 43400 nM; EC50 (Ebolavirus [5]): 890 nM |
| O=C(Nc1ccc(C(F)(F)F)c(Cl)c1)c1ccc(CN2CCOCC2)cc1 | 3910 | 1 | 22100 |  |
| O=C(Nc1ccc(Cl)c(C(F)(F)F)c1)c1ccc(CN2CCOCC2)cc1 | 5600 | 6 | 8090 |  |
| O=C(c1ccc(CN2CCOCC2)cc1)N(c1ccccc1)c1ccccc1 | 71100 | > 15 | 6720 |  |
| O=C(Nc1ccc(C23CC4CC(CC(C4)C2)C3)cc1)c1ccc(CN2CCOCC2)cc1 | 8070 | 495 | 150 |  |
| O=C(Nc1ccc(C23CC4CC(CC(C4)C2)C3)cc1)c1ccc(CN2C[C@@H]3C[C@H]2CO3)cc1 | 1330 | 77 | 200 | Activity (Ebolavirus [6]): Active; selectivity ratio [3]: 17; CC50 (HeLa): 10300 nM; EC50 (Ebolavirus [5]): 610 nM |
| O=C(Nc1ccc(N2CC3(CCC3)C2)c(C(F)(F)F)c1)c1ccc(CN2CCOCC2)cc1 | 3650 | 116 | 860 |  |
| CN1CCN(c2ccc(NC(=O)c3ccc(CN4CCOCC4)cc3)cc2C(F)(F)F)CC1 | 3930 | 37 | 970 |  |
| CC1CCN(c2ccc(NC(=O)c3ccc(CN4CCOCC4)cc3)cn2)CC1 | 24400 | 8 | 12400 |  |
| CC1CCN(c2ccc(NC(=O)c3ccc(CN4CCOCC4)cc3)cc2C(F)(F)F)CC1 | 5280 | 129 | 220 | Activity (Ebolavirus [6]): Active; selectivity ratio [3]: 77; EC50 (Bundibugyo virus): 3670 nM; EC50 (Sudan ebolavirus): 1280 nM; EC50 (Zaire ebolavirus): 220 nM; EC50 (Tai Forest ebolavirus): 170 nM; EC50 (Reston ebolavirus): 740 nM; CC50 (HeLa): 42700 nM; EC50 (Ebolavirus [5]): 540 nM |
| CC1CCN(c2ccc(NC(=O)c3ccc(CN4CCOCC4)cc3)cc2Cl)CC1 | 18500 | 6 | 4320 |  |
| CC1(C)CCCN(c2ccc(NC(=O)c3ccc(CN4CCOCC4)cc3)cc2C(F)(F)F)C1 | 6580 | 107 | 370 |  |
| O=C(N[C@]12CC3CC(C[C@@H](C3)C1)C2)c1ccc(CN2CCOCC2)cc1 | 53800 | 16 | 6270 |  |
| CC(C)(C)c1ccc(NC(=O)c2ccc(CN3CCOCC3)cc2)c(C(C)(C)C)c1 | 17100 | 30 | 3320 |  |
| O=C(Nc1csc(N2CCOCC2)n1)c1ccc(CN2CCOCC2)cc1 | > 100000 | > 1 | > 100000 |  |
| O=C(Nc1ccc(CN2CCOCC2)cc1)c1ccc(Cl)c(C(F)(F)F)c1 | 5660 | 9 | 7760 |  |
| CC1CCN(c2ccc(N(C)C(=O)c3ccc(CN4CCOCC4)cc3)cc2C(F)(F)F)CC1 | 7560 | 33 | 1550 |  |

| SMILES | EC50 (Marburgvirus) [nM] | selectivity ratio [1] | EC50 (Ebolavirus [2]) [nM] | other results |
| --- | --- | --- | --- | --- |
| O=C(Nc1ccc(C23CC4CC(CC(C4)C2)C3)cc1)c1ccc(CN2C[C@@H]3C[C@H]2CO3)nc1 | 2800 | 258 | 230 | Activity (Ebolavirus [6]): Active |
| CC1CCN(c2ccc(NC(=O)Nc3ccc(CN4CCOCC4)cc3)cc2C(F)(F)F)CC1 | 3490 | 7 | 2180 |  |
| CC1CCN(c2ccc(NC(=O)c3ccc(CN4CCOCC4)nc3)cc2C(F)(F)F)CC1 | 1120 | 138 | 400 |  |
| O=C(Nc1ccc(C23CC4CC(CC(O)(C4)C2)C3)cc1)c1ccc(CN2CCOCC2)cc1 | 25000 |  | 64600 |  |
| O=C(Nc1ccc(SC(F)(F)F)c(Cl)c1)c1ccc(CN2CCOCC2)cc1 | 8430 | 5 | 4950 |  |
| CC1CCN(c2ccc(N(CC3CC3)C(=O)c3ccc(CN4CCOCC4)cc3)cc2C(F)(F)F)CC1 | 4610 | 22 | 1820 |  |
| CC1(C)CCN(c2ccc(NC(=O)c3ccc(CN4CCOCC4)cc3)cc2C(F)(F)F)C1 | 1450 | 321 | 190 |  |
| O=C(Nc1ccc(N2CCC3(CCC3)CC2)c(C(F)(F)F)c1)c1ccc(CN2CCOCC2)cc1 | 1110 | 209 | 90 |  |
| CC1CCN(c2ccc(NC(=O)c3ccc(CN4C[C@@H]5C[C@H]4CO5)cn3)cc2C(F)(F)F)CC1 | 8230 | 345 | 290 |  |
| CC1CCN(c2ccc(C(=O)Nc3ccc(CN4CCOCC4)cc3)cc2C(F)(F)F)CC1 | 2900 | 23 | 1030 |  |
| CC1CCN(c2ccc(NC(=O)c3ccc(CN4C[C@@H]5C[C@H]4CO5)nc3)cc2C(F)(F)F)CC1 | 3430 | 149 | 310 | Activity (Ebolavirus [6]): Active |
| CC1CCN(c2ccc(NC(=O)c3ccc(CN4CCOCC4)cc3)cc2F)CC1 | > 100000 | > 1 | > 100000 |  |
| CC1CCCN(c2ccc(NC(=O)c3ccc(CN4CCOCC4)cc3)cc2C(F)(F)F)C1 (configuration not stated) | 3060 | 142 | 300 |  |
| O=C(Nc1ccc(CN2CCOCC2)cc1)Nc1ccc(C23CC4CC(CC(C4)C2)C3)cc1 | 2580 | 32 | 370 | selectivity ratio [3]: 24; CC50 (HeLa): 16600 nM; EC50 (Ebolavirus [5]): 700 nM |
| CC(C)(C)C1CCN(c2ccc(NC(=O)c3ccc(CN4CCOCC4)cc3)cc2C(F)(F)F)CC1 | 6150 | 13 | 1450 |  |
| O=C(Nc1ccc(N2CCC2)c(C(F)(F)F)c1)c1ccc(CN2CCOCC2)cc1 | 42400 | 6 | 14900 |  |
| O=C(Nc1ccc(N2CCOCC2)c(C(F)(F)F)c1)c1ccc(CN2CCOCC2)cc1 | 6970 | 69 | 490 |  |
| CC(C)C1CCN(c2ccc(NC(=O)c3ccc(CN4CCOCC4)cc3)cc2C(F)(F)F)CC1 | 5640 | 28 | 560 |  |
| O=C(Nc1ccc(N2CCC3(CCC3)CC2)c(C(F)(F)F)c1)c1ccc(CN2C[C@H]3C[C@@H]2CO3)nc1 | 880 |  | 210 | inhibition (Influenza A virus): Weak_effect; EC50 (Bundibugyo virus): 960 nM; inhibition [4]: Weak_effect; EC50 (Sudan ebolavirus): 420 nM; EC50 (Zaire ebolavirus): 210 nM; EC50 (Tai Forest ebolavirus): 170 nM; EC50 (Reston ebolavirus): 400 nM; CC50 (HeLa): 13400 nM; EC50 (Ebolavirus [5]): 520 nM |
